Four compounds from patent US20240270762A1, “PENICILLIN-BINDING PROTEIN INHIBITORS” (priority 2021, published 2024) can be followed below.

One test addresses T1, A. baumannii PBP1a (Acinetobacter baumannii, UniProt A0ABX6CK30).
T1 sequence (A0ABX6CK30 1-851): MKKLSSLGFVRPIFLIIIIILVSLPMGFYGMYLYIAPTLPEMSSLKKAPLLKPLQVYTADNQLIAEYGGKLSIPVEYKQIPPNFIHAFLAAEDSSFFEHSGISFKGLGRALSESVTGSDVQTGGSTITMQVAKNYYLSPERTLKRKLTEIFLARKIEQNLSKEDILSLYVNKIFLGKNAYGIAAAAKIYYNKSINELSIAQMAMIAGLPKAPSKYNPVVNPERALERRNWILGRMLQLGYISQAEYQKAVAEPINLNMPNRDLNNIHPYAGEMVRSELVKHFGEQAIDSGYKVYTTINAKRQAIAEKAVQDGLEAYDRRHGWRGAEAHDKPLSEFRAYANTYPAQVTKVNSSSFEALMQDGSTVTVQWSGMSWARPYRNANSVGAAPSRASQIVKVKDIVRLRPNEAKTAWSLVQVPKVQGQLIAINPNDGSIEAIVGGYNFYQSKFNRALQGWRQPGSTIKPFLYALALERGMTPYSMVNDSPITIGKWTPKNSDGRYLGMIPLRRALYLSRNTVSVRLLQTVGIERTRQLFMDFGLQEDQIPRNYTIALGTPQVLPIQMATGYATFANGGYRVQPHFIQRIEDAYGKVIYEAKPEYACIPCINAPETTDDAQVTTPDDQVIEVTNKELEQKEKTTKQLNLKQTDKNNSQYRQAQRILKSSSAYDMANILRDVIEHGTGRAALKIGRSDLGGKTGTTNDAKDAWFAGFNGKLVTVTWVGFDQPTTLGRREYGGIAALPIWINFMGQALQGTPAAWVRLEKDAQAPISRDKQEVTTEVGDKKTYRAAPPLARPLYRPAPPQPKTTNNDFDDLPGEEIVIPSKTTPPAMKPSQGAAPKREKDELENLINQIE
The test is described as follows: Bocillin-FL competition binding via gel filtration, A. baumannii PBP1a. Particulars: competition binding assay using Bocillin-FL via gel filtration; read-out: A. baumannii PBP1a Potency. In short, it runs like this: (§1)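 Competitive equilibrium binding with Bocillin-FL reporter: PBP pre-incubated with inhibitor dilutions, Bocillin-FL added, 15 min incubation. Labelled enzyme isolated by size-exclusion spin plates, fluorescence measured; EC50 obtained by fitting bound fraction against inhibitor concentration with a Hill-coefficient model.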
(In gel filtration, larger molecules generally elute earlier.)

The target of another test is A. baumannii PBP2 (Acinetobacter baumannii, UniProt D0C8Z9). The test is described as follows: Bocillin-FL competition binding via gel filtration, A. baumannii PBP2. In a few lines:
as §1

In a further test the test system is B. pseudomallei Bp82. The test is described as follows: microbe, parasite or virus in culture. The test is classed as cell-based. Particulars: Burkholderia pseudomallei, BP82, read-out: Minimum inhibitory concentration, B. pseudomallei Bp82.

Chain of A. baumannii PBP2 (D0C8Z9 whole entry): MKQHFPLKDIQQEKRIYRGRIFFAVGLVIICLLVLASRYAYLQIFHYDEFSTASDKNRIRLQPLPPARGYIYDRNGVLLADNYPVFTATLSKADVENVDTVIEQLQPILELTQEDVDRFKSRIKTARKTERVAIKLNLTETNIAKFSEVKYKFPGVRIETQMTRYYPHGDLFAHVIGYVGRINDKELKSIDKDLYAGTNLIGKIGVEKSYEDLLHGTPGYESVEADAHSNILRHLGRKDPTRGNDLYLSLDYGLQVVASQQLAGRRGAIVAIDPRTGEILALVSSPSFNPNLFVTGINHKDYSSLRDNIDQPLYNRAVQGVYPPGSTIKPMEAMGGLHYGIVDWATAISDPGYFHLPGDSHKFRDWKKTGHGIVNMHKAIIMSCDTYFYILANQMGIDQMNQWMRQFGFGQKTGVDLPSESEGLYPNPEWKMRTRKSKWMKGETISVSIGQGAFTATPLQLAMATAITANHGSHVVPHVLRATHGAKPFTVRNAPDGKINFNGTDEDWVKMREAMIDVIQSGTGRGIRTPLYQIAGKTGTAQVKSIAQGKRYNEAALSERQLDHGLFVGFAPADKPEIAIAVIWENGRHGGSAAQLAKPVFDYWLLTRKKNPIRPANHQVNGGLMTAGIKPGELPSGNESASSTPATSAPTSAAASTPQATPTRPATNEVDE

As for `O=C(NCCCN1CCN(C(=O)NC(C(=O)N[C@H]2Cc3ccc(F)c(C(=O)O)c3OB2O)c2cc(F)c(O)c(O)c2Cl)C(=O)C1=O)Nc1ccncc1` (stereo partly drawn) [Example 228, (3R)-3-(2-(2-chloro-5-fluoro-3,4-dihydroxyphenyl)-2-(2,3-dioxo-4-(3-(3-(pyridin-4-yl)ureido)propyl)piperazine-1-carboxamido)acetamido)-7-fluoro-2-hydroxy-3,4-dihydro-2H-benzo[e][1,2]oxaborinine-8-carboxylic acid], the EC50 at A. baumannii PBP1a and at A. baumannii PBP2 was 10 to 50 µM throughout. Besides, the MIC in the test with B. pseudomallei Bp82 was less than 1 µg/mL.
Take `O=C(NCCCN1CCN(C(=O)N[C@@H](C(=O)N[C@H]2Cc3ccc(F)c(C(=O)O)c3OB2O)c2cc(F)c(O)c(O)c2Cl)C1=O)c1cccc(O)c1` [Example 255, (R)-3-((R)-2-(2-chloro-5-fluoro-3,4-dihydroxyphenyl)-2-(3-(3-(3-hydroxybenzamido)propyl)-2-oxoimidazolidine-1-carboxamido)acetamido)-7-fluoro-2-hydroxy-3,4-dihydro-2H-benzo[e][1,2]oxaborinine-8-carboxylic acid]: the EC50 on A. baumannii PBP1a and on A. baumannii PBP2 was 10 to 50 µM throughout. In addition, the MIC in the test on B. pseudomallei Bp82 is less than 1 µg/mL.
Take `O=C(NCCCN1CCN(C(=O)N[C@@H](C(=O)N[C@H]2Cc3ccc(F)c(C(=O)O)c3OB2O)c2cc(F)c(O)c(O)c2Cl)C1=O)Nc1cccc(O)c1` [Example 258, (R)-3-((R)-2-(2-chloro-5-fluoro-3,4-dihydroxyphenyl)-2-(3-(3-(3-(3-hydroxyphenyl)ureido)propyl)-2-oxoimidazolidine-1-carboxamido)acetamido)-7-fluoro-2-hydroxy-3,4-dihydro-2H-benzo[e][1,2]oxaborinine-8-carboxylic acid]: the EC50 at A. baumannii PBP1a is 10 to 50 µM; at A. baumannii PBP2, less than 10 µM. The MIC with B. pseudomallei Bp82 is less than 1 µg/mL.
As to `O=C(NCCCN1CCN(C(=O)NC(C(=O)N[C@H]2Cc3ccc(F)c(C(=O)O)c3OB2O)c2cc(F)c(O)c(O)c2Cl)C1=O)Nc1cccnc1` (stereo partly drawn) [Example 259, (3R)-3-(2-(2-chloro-5-fluoro-3,4-dihydroxyphenyl)-2-(2-oxo-3-(3-(3-(pyridin-3-yl)ureido)propyl)imidazolidine-1-carboxamido)acetamido)-7-fluoro-2-hydroxy-3,4-dihydro-2H-benzo[e][1,2]oxaborinine-8-carboxylic acid], the EC50 on A. baumannii PBP1a was 10 to 50 µM; on A. baumannii PBP2 it was less than 10 µM. For the same compound, in the test on B. pseudomallei Bp82, the MIC was less than 1 µg/mL.
